Results published in patent EP4678638A1, “NEW E3 UBIQUITIN LIGASE LIGAND, PROTEIN DEGRADATION AGENT AND USE THEREOF” (priority 2023, dated 2024).

Legend:
H1975 = assay: CCK-8 proliferation, NCI-H1975 (H1975); assay type: cell-based, Human; conditions: Homo sapiens, NCI-H1975; CCK-8; 96 hours; read-out: Inhibitory activity (IC50) on tumor cell proliferation, H1975
Outline: (§1)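 Cells seeded, then after 24 h treated with 10 concentrations (top 10 µM, 5-fold serial dilution) for a line-specific time at 37°C, 5% CO2. Viability read by CCK-8; IC50 fitted from growth-inhibition curves.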

MCF7 = assay: CCK-8 proliferation, MCF7 (MCF-7); assay type: cell-based; conditions: Homo sapiens, MCF7; CCK-8; read-out: Inhibitory activity (IC50) on tumor cell proliferation, MCF7
Outline: as §1

MV-4-11 = assay: CCK-8 proliferation, MV-4-11; assay type: cell-based, Human; conditions: Homo sapiens, MV4-11; CCK-8; 72 or 96 hours; read-out: Inhibitory activity (IC50) on tumor cell proliferation, MV-4-11
Outline: as §1

SR = assay: CCK-8 proliferation, SR; assay type: cell-based, Human; conditions: Homo sapiens, SR; CCK-8; 72 hours; read-out: Inhibitory activity (IC50) on tumor cell proliferation, SR
Outline: as §1

22RV1 = assay: CCK-8 proliferation, 22RV1; assay type: cell-based; conditions: Homo sapiens, 96 hours, read-out: Inhibitory activity (IC50) on tumor cell proliferation, 22RV1
Method: (§2) The tumor cells used herein were cultured in a cell culture medium listed in table A1 at 37°C in an incubator with 5% CO2. Prior to experimentation, all cell lines used were correctly identified by STR profiling, and tested negative for mycoplasma contamination using a mycoplasma detection kit through routine screenings. Table A1. Tumor cells and cell culture medium used in the present disclosure
(§3) IC50 values of the compounds of the present disclosure (including the compounds in Table 1, and compounds of examples) were measured using the Meilun Cell Counting Kit-8 kit from Dalian Meilun Biotech Co., Ltd. Assay details are as follows: tumor cells were seeded in a 96-well plate at a density listed in Table A2. After 24h, 100 µL of the inoculated cells were treated with 0.5µL of the compounds of the present disclosure (including the compounds in Tables 1 and 2, and compounds of examples) at 10 different successively decreasing concentrations (starting at the highest concentration of 10µM; 5-fold serial dilutions). After the cells were treated with the compounds of the present disclosure for a period of time, the cell viability detection reagent was added to the culture medium for cell viability assessment according to the instructions provided with the CCK-8 kit. […] The growth inhibition of the compounds of the present disclosure on cells was plotted by Prism Graphpad software, and the IC50 values of the compounds of the present disclosure were calculated therefrom. […] Seeding protocol and treatment time for tumor cells

CCRF-CEM = assay: CCK-8 proliferation, CCRF-CEM; assay type: cell-based, Human; conditions: Homo sapiens, CCRF-CEM; CCK-8; 96 hours; read-out: Inhibitory activity (IC50) on tumor cell proliferation, CCRF-CEM
Outline: as §1

Kasumi-1 = assay: CCK-8 proliferation, Kasumi-1; assay type: cell-based, Human; conditions: Homo sapiens, Kasumi 1, 72 hours, read-out: Inhibitory activity (IC50) on tumor cell proliferation, Kasumi-1
Outline: as §1

MM.1S = assay: CCK-8 proliferation, MM.1S; assay type: cell-based; conditions: Homo sapiens, MM1.S; CCK-8; 72 hours; read-out: Inhibitory activity (IC50) on tumor cell proliferation, MM1S
Outline: as §1

CDK4 = biological target: T1, CDK4 (Homo sapiens, UniProt P11802); assay: Western blot degradation of CDK4 (MDA-MB-231 Cell); assay type: cell-based; conditions: Table D3
T1 construct: evaluate the effects of the compounds of the present disclosure on the expression of target proteins in cells; endogenous in cells; host or cells: MDA-MB-231
Outline: (§4)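 Quantification by ImageJ densitometry of Western blot bands: DC50 is the fitted concentration halving band intensity relative to DMSO. Percent remaining uses internal-control normalization, and degradation rate is its complement.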

CDK6 = biological target: T2, CDK6 (Homo sapiens, UniProt Q00534); assay: Western blot degradation of CDK6 (MDA-MB-231 Cell); assay type: cell-based; conditions: Table D3
T2 construct: evaluate the effects of the compounds of the present disclosure on the expression of target proteins in cells; endogenous in cells; host or cells: MDA-MB-231
Outline: as §4

MM.1R = assay: CCK-8 proliferation, MM.1R; assay type: cell-based; conditions: CCK-8, 72 hours, read-out: Inhibitory activity (IC50) on tumor cell proliferation, MM.1R
Method: as §2, §3

T2 sequence (Q00534 whole entry): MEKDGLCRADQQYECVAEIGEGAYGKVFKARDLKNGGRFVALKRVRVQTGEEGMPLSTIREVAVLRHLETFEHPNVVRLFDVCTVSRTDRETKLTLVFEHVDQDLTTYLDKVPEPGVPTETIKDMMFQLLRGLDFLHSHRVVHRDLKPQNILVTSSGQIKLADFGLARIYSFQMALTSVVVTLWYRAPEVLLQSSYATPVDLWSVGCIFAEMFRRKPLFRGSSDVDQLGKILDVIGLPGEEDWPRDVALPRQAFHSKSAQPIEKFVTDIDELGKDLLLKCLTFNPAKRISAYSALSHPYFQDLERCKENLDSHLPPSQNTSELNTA
T1 sequence (P11802 whole entry): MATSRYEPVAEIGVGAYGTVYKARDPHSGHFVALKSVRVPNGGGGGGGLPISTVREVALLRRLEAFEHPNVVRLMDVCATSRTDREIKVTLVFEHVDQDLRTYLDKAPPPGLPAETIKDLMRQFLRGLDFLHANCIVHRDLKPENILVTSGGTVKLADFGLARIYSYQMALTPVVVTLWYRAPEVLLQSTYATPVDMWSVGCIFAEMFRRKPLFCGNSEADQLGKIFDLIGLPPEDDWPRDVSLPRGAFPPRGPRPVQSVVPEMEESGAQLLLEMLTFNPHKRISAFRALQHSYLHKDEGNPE

Compound	IC50 (H1975) [nM]	IC50 (MCF7) [nM]	IC50 (MV-4-11) [nM]	IC50 (22RV1) [nM]	IC50 (CCRF-CEM) [nM]	IC50 (MM.1S) [nM]	IC50 (MM.1R) [nM]	IC50 (SR) [nM]	IC50 (Kasumi-1) [nM]	Degradation of substrate protein CDK4 (substrate protein remaining %) (CDK4)	Degradation of substrate protein CDK6 (substrate protein remaining %) (CDK6)
Cc1nc2c(F)cc(-c3nc(Nc4ccc(CN5CCN(Cc6cccc(N7CCC(=O)NC7=O)c6)CC5)cn4)ncc3F)cc2n1C(C)C [GT-06666, 1-(3-((4-((6-((5-fluoro-4-(4-fluoro-1-isopropyl-2-methyl-1H-benzo[d]imidazol-6-yl)pyrimidin-2-yl)amino)pyridin-3-yl)methyl)piperazin-1-yl)methyl)phenyl)dihydropyrimidine-2,4(1H,3H)-dione]	500 to 1000	100 to 500	10 to 50	50 to 100	100 to 500	500 to 1000		100 to 500	100 to 500	A (A is defined as 0% ≤ substrate protein remaining % ≤ 80%)	A (A is defined as 0% ≤ substrate protein remaining % ≤ 80%)
CN(C)C(=O)c1cc2cnc(Nc3ccc(N4CCNCC4)cn3)nc2n1C1CCCC1 [Ribociclib, reference compound]	> 10000	5000 to 10000	5000 to 10000	1000 to 5000	> 10000	5000 to 10000	> 10000	5000 to 10000	1000 to 5000		
CC(=O)c1c(C)c2cnc(Nc3ccc(N4CCNCC4)cn3)nc2n(C2CCCC2)c1=O [Palbociclib, reference compound]	5000 to 10000	1000 to 5000	100 to 500	100 to 500	1000 to 5000	> 10000	> 10000	1000 to 5000	1000 to 5000		
Cc1nc2c(F)cc(-c3nc(Nc4ccc(N5CCC(N6CCN(Cc7ccc(N8CCC(=O)NC8=O)cc7)CC6)CC5)cn4)ncc3F)cc2n1C(C)C [GT-06739, 1-(4-((4-(1-(6-((5-fluoro-4-(4-fluoro-1-isopropyl-2-methyl-1H-benzo[d]imidazol-6-yl)pyrimidin-2-yl)amino)pyridin-3-yl)piperidin-4-yl)piperazin-1-yl)methyl)phenyl)dihydropyrimidine-2,4(1H,3H)-dione]	100 to 500	50 to 100	10 to 50	10 to 50	100 to 500	100 to 500		50 to 100	50 to 100	A (A is defined as 0% ≤ substrate protein remaining % ≤ 80%)	B (B is defined as substrate protein remaining % > 80%)

Second part, led by results:

IC50 (H1975) [nM]	IC50 (MCF7) [nM]	IC50 (MV-4-11) [nM]	IC50 (22RV1) [nM]	IC50 (CCRF-CEM) [nM]	IC50 (MM.1S) [nM]	IC50 (MM.1R) [nM]	Compound	IC50 (SR) [nM]	IC50 (Kasumi-1) [nM]	Degradation of substrate protein CDK4 (substrate protein remaining %) (CDK4)	Degradation of substrate protein CDK6 (substrate protein remaining %) (CDK6)
100 to 500	50 to 100	10 to 50	10 to 50	100 to 500	100 to 500		Cc1nc2c(F)cc(-c3nc(Nc4ccc(N5CCC(N6CCN(Cc7cccc(N8CCC(=O)NC8=O)c7)CC6)CC5)cn4)ncc3F)cc2n1C(C)C [GT-06740, 1-(3-((4-(1-(6-((5-fluoro-4-(4-fluoro-1-isopropyl-2-methyl-1H-benzo[d]imidazol-6-yl)pyrimidin-2-yl)amino)pyridin-3-yl)piperidin-4-yl)piperazin-1-yl)methyl)phenyl)dihydropyrimidine-2,4(1H,3H)-dione]	10 to 50	50 to 100	A (A is defined as 0% ≤ substrate protein remaining % ≤ 80%)	B (B is defined as substrate protein remaining % > 80%)
100 to 500	50 to 100	10 to 50	10 to 50	100 to 500	100 to 500		Cc1nc2c(F)cc(-c3nc(Nc4ccc(N5CCC(N(C)Cc6ccc(N7CCC(=O)NC7=O)nc6)CC5)cn4)ncc3F)cc2n1C(C)C [GT-06841, 1-(5-(((1-(6-((5-fluoro-4-(4-fluoro-1-isopropyl-2-methyl-1H-benzo[d]imidazol-6-yl)pyrimidin-2-yl)amino)pyridin-3-yl)piperidin-4-yl)(methyl)amino)methyl)pyridin-2-yl)dihydropyrimidine-2,4(1H,3H)-dione]	10 to 50	50 to 100	A (A is defined as 0% ≤ substrate protein remaining % ≤ 80%)	A (A is defined as 0% ≤ substrate protein remaining % ≤ 80%)
100 to 500	100 to 500	50 to 100	10 to 50	100 to 500	100 to 500		Cc1nc2c(F)cc(-c3nc(Nc4ccc(N5CCC(N6CCN(Cc7cccc(NC8CCC(=O)NC8=O)c7)CC6)CC5)cn4)ncc3F)cc2n1C(C)C (stereo not drawn) [GT-06743, 3-((3-((4-(1-(6-((5-fluoro-4-(4-fluoro-1-isopropyl-2-methyl-1H-benzo[d]imidazol-6-yl)pyrimidin-2-yl)amino)pyridin-3-yl)piperidin-4-yl)piperazin-1-yl)methyl)phenyl)amino)pip eridine-2,6-dione]	50 to 100	100 to 500	A (A is defined as 0% ≤ substrate protein remaining % ≤ 80%)	B (B is defined as substrate protein remaining % > 80%)
100 to 500	50 to 100	10 to 50	10 to 50	50 to 100	100 to 500		Cc1nc2c(F)cc(-c3nc(Nc4ccc(N5CCC(N6CCN(Cc7ccc(N8CCC(=O)NC8=O)cn7)CC6)CC5)cn4)ncc3F)cc2n1C(C)C [GT-06741, 1-(6-((4-(1-(6-((5-fluoro-4-(4-fluoro-1-isopropyl-2-methyl-1H-benzo[d]imidazol-6-yl)pyrimidin-2-yl)amino)pyridin-3-yl)piperidin-4-yl)piperazin-1-yl)methyl)pyridin-3-yl)dihydropyrimidine-2,4(1H,3H)-dione]	10 to 50	100 to 500	A (A is defined as 0% ≤ substrate protein remaining % ≤ 80%)	B (B is defined as substrate protein remaining % > 80%)
